The test has as its target BoNT A light chain (BoNT A Lc) (Clostridium botulinum, UniProt P0DPI0). It counts as biochemical.
Chain of BoNT A light chain (BoNT A Lc) (P0DPI0 2-448 limits assumed): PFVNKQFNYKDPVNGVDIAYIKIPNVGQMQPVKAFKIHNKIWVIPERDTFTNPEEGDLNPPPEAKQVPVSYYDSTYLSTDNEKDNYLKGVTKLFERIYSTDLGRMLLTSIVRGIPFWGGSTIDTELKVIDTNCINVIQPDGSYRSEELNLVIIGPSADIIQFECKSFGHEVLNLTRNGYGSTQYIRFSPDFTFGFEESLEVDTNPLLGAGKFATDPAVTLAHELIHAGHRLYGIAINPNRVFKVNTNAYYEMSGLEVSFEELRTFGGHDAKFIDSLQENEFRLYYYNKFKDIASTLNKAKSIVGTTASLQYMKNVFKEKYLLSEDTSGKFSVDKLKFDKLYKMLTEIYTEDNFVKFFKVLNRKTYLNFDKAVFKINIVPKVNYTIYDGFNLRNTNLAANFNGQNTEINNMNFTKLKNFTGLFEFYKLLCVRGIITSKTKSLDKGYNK
As for “S N K V R I D Q A N Q R A T K M L [Peptide P3]”, the “effect of substitution or truncation on hydrolysis rate (in words)” value is “further enhanced the rate”. The same measure for V R I D A A N Q R A T R M [Peptide P7]: “decreased the hydrolysis rate significantly”; for “N R V R I D A A N Q R A T R M [Peptide P5]”: “enhanced cleavage velocity”. “S N R V R I D Q A N Q R A T R M L [Peptide P4]”: the “effect of substitution or truncation on hydrolysis rate (in words)” value was “had no effect”.

Values taken from patent publication US20120202754A1 (priority 2009, published 2012).
